Assay results: patent US20230190754A1, “Therapeutic combinations for the treatment of Progressive Fibrosing interstitial lung diseases” (Boehringer Ingelheim International GmbH, priority 2021, published 2023)
Marks after values point to notes of the source that are not given here.

Test system: IPF patients
Experiment: Phase II clinical trial in IPF patients: Treatment Emergent Adverse Events (safety/tolerability), up to 13 weeks
[1] = Non-AF-group, 18 mg b.i.d., listed as Compound of Formula III
[2] = Non-AF-group, 18 mg b.i.d., listed as active agent

[O-][S@+]1CCc2nc(N3CCC(c4ncc(Cl)cn4)CC3)nc(NC3(CO)CCC3)c21 [Comp. of form. III]
AE: Decreased appetite, patients % (Non-AF-group, 18 mg b.i.d.): (2.1) %
AE: Decreased appetite, patients n (Non-AF-group, 18 mg b.i.d.): 1
AE: Diarrhoea, patients % (Non-AF-group, 18 mg b.i.d.): 16.7%
AE: Diarrhoea, patients n (Non-AF-group, 18 mg b.i.d.): 8
AE: Dizziness, patients % (Non-AF-group, 18 mg b.i.d.): (2.1) %
AE: Dizziness, patients n (Non-AF-group, 18 mg b.i.d.): 1
AE: Dyspepsia, patients % (Non-AF-group, 18 mg b.i.d.): (6.3) %
AE: Dyspepsia, patients n (Non-AF-group, 18 mg b.i.d.): 3
AE: Dyspnoea, patients % (Non-AF-group, 18 mg b.i.d.): (6.3) %
AE: Dyspnoea, patients n (Non-AF-group, 18 mg b.i.d.): 3
AE: Fatigue, patients % (Non-AF-group, 18 mg b.i.d.): (4.2) %
AE: Fatigue, patients n (Non-AF-group, 18 mg b.i.d.): 2
AE: Flatulence, patients % (Non-AF-group, 18 mg b.i.d.): (6.3) %
AE: Flatulence, patients n (Non-AF-group, 18 mg b.i.d.): 3
AE: Gastrointestinal disorders, patients % (Non-AF-group, 18 mg b.i.d.): (27.1) %
AE: Gastrointestinal disorders, patients n (Non-AF-group, 18 mg b.i.d.): 13
AE: General disorders and administration site conditions, patients % (Non-AF-group, 18 mg b.i.d.): (18.8) %
AE: General disorders and administration site conditions, patients n (Non-AF-group, 18 mg b.i.d.): 9
AE: Headache, patients % (Non-AF-group, 18 mg b.i.d.): (6.3) %
AE: Headache, patients n (Non-AF-group, 18 mg b.i.d.): 3
AE: Infections and infestations, patients % (Non-AF-group, 18 mg b.i.d.): (14.6) %
AE: Infections and infestations, patients n (Non-AF-group, 18 mg b.i.d.): 7
AE: Investigations, patients % (Non-AF-group, 18 mg b.i.d.): (10.4) %
AE: Investigations, patients n (Non-AF-group, 18 mg b.i.d.): 5
AE: Metabolism and nutrition disorders, patients % (Non-AF-group, 18 mg b.i.d.): (2.1) %
AE: Metabolism and nutrition disorders, patients n (Non-AF-group, 18 mg b.i.d.): 1
AE: Musculoskeletal and connective tissue disorders, patients % (Non-AF-group, 18 mg b.i.d.): (4.2) %
AE: Musculoskeletal and connective tissue disorders, patients n (Non-AF-group, 18 mg b.i.d.): 2
AE: Nausea, patients % (Non-AF-group, 18 mg b.i.d.): (4.2) %
AE: Nausea, patients n (Non-AF-group, 18 mg b.i.d.): 2
AE: Nervous system disorders, patients % (Non-AF-group, 18 mg b.i.d.): (8.3) %
AE: Nervous system disorders, patients n (Non-AF-group, 18 mg b.i.d.): 4
AE: Oedema peripheral, patients % (Non-AF-group, 18 mg b.i.d.): (2.1) %
AE: Oedema peripheral, patients n (Non-AF-group, 18 mg b.i.d.): 1
AE: Pyrexia, patients % (Non-AF-group, 18 mg b.i.d.): (2.1) %
AE: Pyrexia, patients n (Non-AF-group, 18 mg b.i.d.): 1
AE: Respiratory, thoracic and mediastinal disorders, patients % (Non-AF-group, 18 mg b.i.d.): (16.7) %
AE: Respiratory, thoracic and mediastinal disorders, patients n (Non-AF-group, 18 mg b.i.d.): 8
AE: Rhinorrhoea, patients % (Non-AF-group, 18 mg b.i.d.): (2.1) %
AE: Rhinorrhoea, patients n (Non-AF-group, 18 mg b.i.d.): 1
AE: Vomiting, patients % (Non-AF-group, 18 mg b.i.d.): (2.1) %
AE: Vomiting, patients n (Non-AF-group, 18 mg b.i.d.): 1
AE: Weight decreased, patients % (Non-AF-group, 18 mg b.i.d.): (4.2) %
AE: Weight decreased, patients n (Non-AF-group, 18 mg b.i.d.): 2
AEs leading to discontinuation of trial drug, patients % (Non-AF-group, 18 mg b.i.d.): (6.3) %
AEs leading to discontinuation of trial drug, patients n (Non-AF-group, 18 mg b.i.d.): 3
Any AE, patients n (Non-AF-group, 18 mg b.i.d.): 31
Gastrointestinal disorders leading to discontinuation of trial treatment, patients n (Non-AF-group, 18 mg b.i.d.): 1
SAE: COPD, patients % (Non-AF-group, 18 mg b.i.d.): (2.1) %
SAE: COPD, patients n (Non-AF-group, 18 mg b.i.d.): 1
SAE: Cardiac disorders, patients % (Non-AF-group, 18 mg b.i.d.): (2.1) %
SAE: Cardiac disorders, patients n (Non-AF-group, 18 mg b.i.d.): 1
SAE: Cardiac failure congestive, patients % (Non-AF-group, 18 mg b.i.d.): (2.1) %
SAE: Cardiac failure congestive, patients n (Non-AF-group, 18 mg b.i.d.): 1
SAE: Covid-19 pneumonia (fatal event), patients % (Non-AF-group, 18 mg b.i.d.): (2.1)* %
SAE: Covid-19 pneumonia (fatal event), patients n (Non-AF-group, 18 mg b.i.d.): 1
SAE: Dyspnoea, patients % (Non-AF-group, 18 mg b.i.d.): (2.1) %
SAE: Dyspnoea, patients n (Non-AF-group, 18 mg b.i.d.): 1
SAE: Infections and Infestations, patients % (Non-AF-group, 18 mg b.i.d.): (2.1) %
SAE: Infections and Infestations, patients n (Non-AF-group, 18 mg b.i.d.): 1
SAE: Lung neoplasm, patients % (Non-AF-group, 18 mg b.i.d.): (2.1) %
SAE: Lung neoplasm, patients n (Non-AF-group, 18 mg b.i.d.): 1
SAE: Neoplasms benign, malignant and unspecified, patients % (Non-AF-group, 18 mg b.i.d.): (2.1) %
SAE: Neoplasms benign, malignant and unspecified, patients n (Non-AF-group, 18 mg b.i.d.): 1
SAE: Respiratory, thoracic and mediastinal disorders, patients % (Non-AF-group, 18 mg b.i.d.): (2.1) %
SAE: Respiratory, thoracic and mediastinal disorders, patients n (Non-AF-group, 18 mg b.i.d.): 1
Serious AEs (patients with ≥1 SAE), patients % (Non-AF-group, 18 mg b.i.d.): (6.3) %
Serious AEs (patients with ≥1 SAE), patients n (Non-AF-group, 18 mg b.i.d.): 3
Severe AEs, patients % (Non-AF-group, 18 mg b.i.d.): (4.2) %
Severe AEs, patients n (Non-AF-group, 18 mg b.i.d.): 2
Vomiting leading to discontinuation of trial treatment, patients % (Non-AF-group, 18 mg b.i.d.): (2.1) %
Vomiting leading to discontinuation of trial treatment, patients n (Non-AF-group, 18 mg b.i.d.): 1
AE: Diarrhoea, patients % [1]: (16.7) %
Any AE, patients % [1]: (64.6) %
Gastrointestinal disorders leading to discontinuation of trial treatment, patients % [1]: (2.1) %
AE: Diarrhoea, patients % [2]: 16.7%
Any AE, patients % [2]: 64.6%
Gastrointestinal disorders leading to discontinuation of trial treatment, patients % [2]: 2.1%
Abdominal Pain, % (Total, N = 97): (2.1) %
Arthralgia, % (Total, N = 97): (2.1) %
Asthenia, % (Total, N = 97): (4.1) %
Bronchitis, % (Total, N = 97): (2.1) %
Condition aggravated, % (Total, N = 97): (2.1) %
Constipation, % (Total, N = 97): (3.1) %
Cough, % (Total, N = 97): (7.2) %
Decreased appetite, % (Total, N = 97): (3.1) %
Diarrhoea, % (Total, N = 97): (23.7) %
Dizziness, % (Total, N = 97): (2.1) %
Dyspepsia, % (Total, N = 97): (5.2) %
Dyspnoea, % (Total, N = 97): (3.1) %
Fatigue, % (Total, N = 97): (3.1) %
Flatulence, % (Total, N = 97): (5.2) %
Gastrointestinal disorders, % (Total, N = 97): (32.0) %
General Disorders and Administration Side conditions, % (Total, N = 97): (16.5) %
Headache, % (Total, N = 97): (6.2) %
Infections and infestations, % (Total, N = 97): (14.4) %
Investigations, % (Total, N = 97): (15.5) %
Metabolism and nutrition disorders, % (Total, N = 97): (4.1) %
Musculoskeletal and connective tissue disorders, % (Total, N = 97): (5.2) %
Nasopharyngitis, % (Total, N = 97): (4.1) %
Nausea, % (Total, N = 97): (3.1) %
Nervous system disorders, % (Total, N = 97): (13.4) %
Oedema peripheral, % (Total, N = 97): (2.1) %
Pyrexia, % (Total, N = 97): (2.1) %
Respiratory, thoracic and mediastinal disorders, % (Total, N = 97): (14.4) %
Rhinorrhoea, % (Total, N = 97): (2.1) %
Vomiting, % (Total, N = 97): (3.1) %
Weight decreased, % (Total, N = 97): (3.1) %
